Results: patent US20130109698A1, “Small Molecule Inhibitors of Functions of the HIV-1 Matrix Protein” (priority 2010, published 2013)
pIC50: −log10 of the molar value.

Tests used:
HIV-1 MA = biological target: T1, HIV-1 MA (Human immunodeficiency virus type 1 group M subtype B, UniProt P03348); experiment: Surface plasmon resonance direct binding to immobilized HIV-1 MA; conditions: for direct interaction with sensor chip-immobilized HIV-1 MA: CM7 sensor chip, 10 μM (FIG. 14)
T1 construct: His6 (N, cleaved yes); SUMO (N, cleaved yes); made in house; host or cells: Escherichia coli BL21 (DE3) Codon+-RIL
Description: An assay was devised to monitor the interactions of small-molecule compounds to HIV-1 MA using SPR. In this assay, HIV-1LA1 MA was immobilized to the flow cells of a CM5 sensor chip to high density (˜1.3 kRU) or a CM7 sensor chip to high density (19 kRU) using standard amine coupling. A reference surface was similarly created by immobilizing the SUMO protein or a nonspecific antibody ARC4033 (antimouse/rat interferon-γ: BioSource). In small-molecule assays, the buffering system used is important due to the low responses obtained in binding assays. […] A stock solution of the MTI compounds was prepared by dissolving in 100% dimethyl sulfoxide (DMSO) to a final concentration of 10 mM.
To prepare the sample for analysis, 30 μL of the stock solution of the compound of the invention was added to sample preparation buffer (PBS, pH 7.2) to a final volume of 1 mL and mixed thoroughly. Preparation of analyte in this manner ensured that the concentration of DMSO was matched with that of running buffer with 3% DMSO. Lower concentrations of each compound were then prepared by two-fold serial dilutions into running buffer (PBS, 3% DMSO, pH 7.2). These compound dilutions were then injected over the control and MA surfaces at a flow rate of 30 μL min^−, for a 4-min association phase, followed by a 5-min dissociation phase.
In one aspect, owing to the relatively fast dissociation rates of these compounds, regeneration of these surfaces was accomplished by extensive washing of the system followed by a 5 min wait phase, a second wash, and a final 15 min wait phase. To secure complete regeneration, a buffer injection (5 min^on/5 min^off) was performed before each subsequent injection of compound.
Response to a small-molecule compound (NBD-556) specific for HIV-1 gp120 was also monitored to ensure specificity.
Data analysis was performed using BIAEvaluation 4.0 software (GE Healthcare). The responses of a buffer injection and responses from the ARC4033-immobilized reference cell were subtracted to account for nonspecific binding. The average maximum response was generated from a minimum of 3 data sets and was used to define the standard deviation for each compound binding to the HIV-1 MA protein.
The MTI compounds are predicted to interact with HIV-1 MA and thereby disrupt its functioning during the HIV-1 replication cycle. However, it is possible that a compound might exert its action via another mechanism not involving MA. Therefore, studies were performed to determine that the MTI compounds are directed against HIV-1 MA. The direct interaction of compounds CMPD-18, CMPD-17, CMPD-7, and CMPD-14 with HIV-1 MA was assayed using surface plasmon resonance interaction analyses. Wild-type HIV-1 MA protein was overproduced in E. coli using the pETHSUL expression system and purified using successive IMAC strategies, followed by an ion exchange chromatographic step as outlined in Materials and Methods. FIG. 6 illustrates the purification profile of HIV-1 MA. The purified MA was then immobilized onto the surface of a high-capacity CM7 sensor chip. Similarly, the monoclonal antibody ARC4033 (antimouse/rat interferon-γ; BioSource, Invitrogen, Carlsbad, Calif.) was immobilized on a CM7 sensor chip and was used to correct for background binding and instrument and buffer artifacts.

PBMCs = experiment: Compound cytotoxicity in PBMCs (MTS); assay type: cell-based, human; conditions: Tables 6 and 7 study; read-out: TC50 (the source's name)
Experimental: (§1) HIV human peripheral blood mononuclear cell (PBMC) assays were performed as described previously (Lanier et al., 2010, Antimicrob Agents Chemother 54:2901-2909 and Ptak et al., 2008, Antimicrob Agents Chemother 52:1302-1317). Briefly, fresh PBMCs, seronegative for HIV and hepatitis B virus (HBV), were isolated from blood samples of the screened donors (Biological Specialty Corporation, Colmar, Pa.) by using lymphocyte separation medium (LSM; density, 1.078±0.002 g/ml; Cellgro; Mediatech, Inc.) by following the manufacturer's instructions. Cells were stimulated by incubation in 4 μg/mL phytohemagglutinin (PHA; Sigma) for 48 to 72 h. Mitogenic stimulation was maintained by the addition of 20 U/mL recombinant human interleukin-2 (rhIL-2; R&D Systems, Inc.) to the culture medium. PHA-stimulated PBMCs from at least two donors were pooled, diluted in fresh medium, and added to 96-well plates at 5×10^4 cells/well. Cells were infected (final multiplicity of infection [MOI] of ≅0.1) in the presence of nine different concentrations of test compounds (triplicate wells/concentration) and incubated for 7 days. To determine the level of virus inhibition, cell-free supernatant samples were collected for analysis of reverse transcriptase activity (Buckheit et al., 1991, AIDS Res Hum Retroviruses 7:295-302). Following removal of supernatant samples, compound cytotoxicity was measured by the addition of 3-(4,5-dimethylthiazol-2-yl)-5-(3-carboxymethoxy-phenyl)-2-(4-sulfophenyl)-2H-tetrazolium (MTS; CellTiter 96 reagent; Promega) by following the manufacturer's instructions.

Vaccinia = assay type: cell-based; conditions: up to 100 μM
[1] = tested on: respiratory syncytial virus; experiment: Antiviral spectrum: cytopathic effect assay; assay type: cell-based
HIV-1 Ba-L = experiment: Antiviral activity of additional compounds (Tables 6 and 7); assay type: cell-based
Experimental: as §1

HIV-1 NL4-3 = experiment: as above; assay type: cell-based
Experimental: as §1

herpes simplex type 1 = experiment: Antiviral spectrum: HSV-1 in Vero cells; assay type: cell-based; conditions: herpes simplex type 1, up to 100 μM
Experimental: The effects of the compounds on HSV-1 (dsDNA; strain HF evaluated in Vero cells; virus and cells obtained from the American Type Culture Collection [ATCC]) were assessed as described previously (Ptak et al., 2008, Antimicrob Agents Chemother 52:1302-1317).

HIV-1 IIIB = experiment: Infection of Sup-T1 cells by HIV-1 IIIB, p24 ELISA; conditions: 50 μM, three days
[2] = Human immunodeficiency virus 1, BAL
[3] = Human immunodeficiency virus 1, NL43

Compound	direct interaction with sensor chip-immobilized HIV-1 MA (HIV-1 MA)	CC50 (PBMCs)	inhibitory effects on replication (Vaccinia)	inhibitory effects on replication [1]	Antiviral index (TC50/IC50) (HIV-1 Ba-L)	pIC50 (HIV-1 Ba-L; [2])	IC90 (HIV-1 Ba-L; [2])	Antiviral index (TC50/IC50) (HIV-1 NL4-3)	pIC50 (HIV-1 NL4-3; [3])	IC90 (HIV-1 NL4-3; [3])	inhibitory effects on replication (herpes simplex type 1)	interaction with HIV-1 MA versus SUMO (HIV-1 MA; 25.1 μM (FIG. 11))	HIV-1 replication (p24), in words (HIV-1 IIIB)
O=C(CNC(=O)COc1ccccc1)NCc1ccc(C(=O)N2CCCCC2)cc1 [CMPD-14, N-(2-oxo-2-((4-(piperidine-1-carbonyl)benzyl)amino)ethyl)-2-phenoxyacetamide]	directly interacted	> 100 µM	no inhibitory effects	no inhibitory effects	> 3.13	4.49	> 100 µM	> 2.53	4.40	> 100 µM	no inhibitory effects	–	–
CCOc1ccc(NC(=O)Cc2cn3ccsc3n2)cc1S(=O)(=O)N1CCCCC1 [CMPD-18, N-(4-ethoxy-3-(piperidin-1-ylsulfonyl)phenyl)-2-(imidazo[2,1-b]thiazol-6-yl)acetamide]	directly interacted	–	no inhibitory effects	no inhibitory effects	–	–	–	–	–	–	no inhibitory effects	specific interaction	inhibited
Cc1ccc(NC(=O)CN2CCN(Cc3nc(-c4ccc(F)cc4)no3)CC2)cc1 [CMPD-7, 2-(4-((3-(4-fluorophenyl)-1,2,4-oxadiazol-5-yl)methyl)piperazin-1-yl)-N-(p-tolyl)acetamide]	directly interacted	–	no inhibitory effects	no inhibitory effects	–	–	–	–	–	–	no inhibitory effects	–	–
